Molecules are shown by their SMILES. Counter-ions that a name gives are not always drawn.

The values that follow come from patent publication US20250134890A1, “ANTIMALARIAL HEXAHYDROPYRIMIDINE ANALOGUES” (UCB BIOPHARMA SRL, priority 2022, published 2025).

For one experiment, the system named is Plasmodium falciparum: 3D7 strain. The experiment is described as follows: P. falciparum 3D7 asexual blood stage assay (SYBR green readout). It is filed as cell-based. Particulars: P. falciparum 3D7 in human erythrocytes, 72 h incubation, SYBR green fluorescence; hydrochloride. From the text: The compounds of the present invention are potent inhibitors of the growth and propagation of the Plasmodium falciparum parasite in human blood.
The assay used to measure the effect of test compounds on a bloodstream stage of Plasmodium falciparum: 3D7 strain employs SYBR green as the readout. This is a dye that binds to double stranded deoxyribonucleic acid (DNA) with a resulting increase in fluorescence, allowing detection of P. falciparum DNA in infected erythrocytes, and thereby providing a measure of parasite growth and propagation.
Erythrocytes (A+blood) were prepared for both parasite culture and assay by washing 4 times with incomplete media (15.9 g RPMI 1640 (25 mM HEPES, L-glutamine), 1 g NaHCO3, 2 g glucose, 400 μL gentacin (500 mg/mL), 2 mL hypoxanthine solution (13.6 g/L in 0.1M NaOH pH 7.3) in 1 litre of media). The cells were centrifuged at 1800 g for 5 minutes, before decanting the supernatant and re-suspending in fresh incomplete media. On the final wash, the cells were re-suspended in complete media (incomplete media with 5 g/L AlbumaxII), and centrifuged at 1800 g for 3 minutes. This cell sediment was treated as 100% haematocrit.
P. falciparum 3D7 was cultured in erythrocytes at 5% haematocrit in complete media at 37° C. (1% O2, 3% CO2, balance N2). Cultures were split on a weekly basis to achieve a 1% parasitaemia in erythrocites at 5% haematocrit in fresh media. Culture media is replaced by fresh media every other day (2 times during the week).
On day 1, test compounds were added to assay plates using Echo dispensing technology ([…] and 20 points titration). 50 nL of each compound dilution was added to 50 μL of culture (5% haematocrit, 0.5% parasitaemia) and incubated for 72 h at 37° C. (1% O2, 3% CO2, balance N2). Final concentrations of test compounds ranged from 50,000 nM to 15 nM, in […].
On day 4, 10 μL SYBR green (Invitrogen S7563 supplied as 10,000×concentrate in DMSO) pre-diluted to 3×concentrate with Lysis buffer (20 mM Tris pH 7.9, 5% EDTA, 0.16% w/v, 1.6% TX100 v/v) was added to the cultures and incubated in the dark, overnight, at room temperature.
On day 5, fluorescent signal was measured using a BioTek plate reader (excitation 485 nm, emission 528 nm). All data were processed using IDBS ActivityBase. Raw data were converted into percent inhibition through linear regression by setting the high inhibition control (mefloquine) as 100% and the no inhibition control (DMSO) as 0%. Quality control criteria for passing plates were as follows: Z′>0.5, S:B>3, % CV(no inhibition control)<15. The formula used to calculate Z′ is: […]
All EC50 curve fitting was undertaken using the following bi-phasic two site dose response using XLfit model 300 (IDBS):
where A=100 minus the top of the upper curve 1 and the bottom of lower curve; B=Hill slope; log(C)=IC50 concentration at lower site; log(D)=IC50 concentration at upper site; x=inhibitor concentration; and y=% inhibition.
Usually IC50 stands for the concentration that gives 50% inhibition. High values mean weaker potency in that assay, low ones greater potency in that assay. As for `C[C@H]1C[C@@H](N2C(=N)N[C@](C)(c3cccc(-c4cccc(C(O)C(F)F)c4)c3Cl)CC2=O)CCO1` (single isomer, unassigned) [Example 26, (6S)-6-(2-Chloro-3-{3-[(1S*)-2,2-difluoro-1-hydroxyethyl]phenyl}-phenyl)-2-imino-6-methyl-3-[(2S,4S)-2-methyltetrahydropyran-4-yl]hexahydropyrimidin-4-one hydrochloride], the IC50 was determined as 55 nM.

Staying with this experiment, now noted: Plasmodium falciparum, 3D7, Erythrocyte, 72 h, P. falciparum 3D7 in human erythrocytes, 72 h incubation, SYBR green fluorescence.
`C[C@@]1(c2cccc(-c3cccc(Cl)c3)c2Cl)CC(=O)N([C@H]2CCOC[C@@H]2O)C(=N)N1` (relative stereo) [Example 95, (6S)-6-[2-Chloro-3-(3-chloro-phenyl)phenyl]-3-[(3R*,4S*)-3-hydroxytetrahydropyran-4-yl]-2-imino-6-methylhexahydro-pyrimidin-4-one hydrochloride] showed a 50% inhibitory concentration (IC50) of 323 nM. Still for that read-out and setting: next, `C[C@@]1(c2cccc(-c3cccc(Cl)c3)c2Cl)CC(=O)N([C@@H]2CCOC[C@H]2O)C(=N)N1` (relative stereo) [Example 96, (6S)-6-[2-Chloro-3-(3-chloro-phenyl)phenyl]-3-[(3S*,4R*)-3-hydroxytetrahydropyran-4-yl]-2-imino-6-methylhexahydro-pyrimidin-4-one hydrochloride]: 1430 nM; `C[C@@]1(c2cccc(-c3ccc(F)cc3F)c2Cl)CC(=O)N([C@@H]2CCC(F)(F)[C@H](O)C2)C(=N)N1` (relative stereo) [Example 97, (6S)-6-[2-Chloro-3-(2,4-difluoro-phenyl)phenyl]-3-[(1R*,3R*)-4,4-difluoro-3-hydroxycyclohexyl]-2-imino-6-methylhexahydro-pyrimidin-4-one hydrochloride]: 280 nM. On the same count and under the same terms, next, `C[C@@]1(c2cccc(-c3ccc(C4CC4)nc3)c2Cl)CC(=O)N([C@@H]2CCC(F)(F)[C@H](O)C2)C(=N)N1` (relative stereo) [Example 98, (6S)-6-[2-Chloro-3-(6-cyclopropyl-pyridin-3-yl)phenyl]-3-[(1R*,3R*)-4,4-difluoro-3-hydroxycyclohexyl]-2-imino-6-methylhexahydro-pyrimidin-4-one hydrochloride]: 297 nM; `C[C@@]1(c2cccc(-c3ccc(C4CC4)nc3)c2Cl)CC(=O)N([C@H]2CCC(F)(F)[C@@H](O)C2)C(=N)N1` (relative stereo) [Example 99, (6S)-6-[2-Chloro-3-(6-cyclopropyl-pyridin-3-yl)phenyl]-3-[(1S*,3S*)-4,4-difluoro-3-hydroxycyclohexyl]-2-imino-6-methylhexahydro-pyrimidin-4-one hydrochloride]: 1960 nM. On to `C[C@H]1C[C@@H](N2C(=N)N[C@](C)(c3cccc(-c4cccc(Cl)c4)c3Cl)CC2=O)CCN1` (relative stereo) [Example 100, (6S)-6-[2-Chloro-3-(3-chloro-phenyl)phenyl]-2-imino-6-methyl-3-[(2S*,4S*)-2-methylpiperidin-4-yl]hexahydropyrimidin-4-one hydrochloride], for which the IC50 was found to be 373 nM. Consider `C[C@@H]1C[C@H](N2C(=N)N[C@](C)(c3cccc(-c4cccc(Cl)c4)c3Cl)CC2=O)CCN1` (relative stereo) [Example 101, (6S)-6-[2-Chloro-3-(3-chloro-phenyl)phenyl]-2-imino-6-methyl-3-[(2R*,4R*)-2-methylpiperidin-4-yl]hexahydropyrimidin-4-one hydrochloride], for which the IC50 came to 392 nM. On the same count and under the same terms, next, `C[C@H]1C[C@@H](N2C(=N)N[C@](C)(c3cccc(-c4ccc(F)cc4F)c3Cl)CC2=O)CCN1` (relative stereo) [Example 102, (6S)-6-[2-Chloro-3-(2,4-difluoro-phenyl)phenyl]-2-imino-6-methyl-3-[(2S*,4S*)-2-methylpiperidin-4-yl]hexahydropyrimidin-4-one hydrochloride]: 504 nM. The compound `C[C@@H]1C[C@H](N2C(=N)N[C@](C)(c3cccc(-c4ccc(F)cc4F)c3Cl)CC2=O)CCN1` (relative stereo) [Example 103, (6S)-6-[2-Chloro-3-(2,4-difluoro-phenyl)phenyl]-2-imino-6-methyl-3-[(2R*,4R*)-2-methylpiperidin-4-yl]hexahydropyrimidin-4-one hydrochloride] returned a 50% inhibitory concentration (IC50) of 744 nM. `C[C@@H]1C[C@H](N2C(=N)N[C@](C)(c3cccc(-c4cccc(Cl)c4)c3Cl)CC2=O)CC[C@H]1O` (relative stereo) [Example 104, (6S)-6-[2-Chloro-3-(3-chloro-phenyl)phenyl]-3-[(1S*,3S*,4S*)-4-hydroxy-3-methylcyclohexyl]-2-imino-6-methylhexahydro-pyrimidin-4-one hydrochloride] registered a half-maximal inhibitory concentration (IC50) of 4940 nM. For `C[C@H]1C[C@@H](N2C(=N)N[C@](C)(c3cccc(-c4cccc(Cl)c4)c3Cl)CC2=O)CC[C@@H]1O` (relative stereo) [Example 105, (6S)-6-[2-Chloro-3-(3-chloro-phenyl)phenyl]-3-[(1R*,3R*,4R*)-4-hydroxy-3-methylcyclohexyl]-2-imino-6-methylhexahydro-pyrimidin-4-one hydrochloride], the IC50 stood at 1560 nM. This IC50 is about 3.2-fold lower than that of the compound before. On the same count and under the same terms, next, `C[C@H]1C[C@@H](N2C(=N)N[C@](C)(c3cccc(-c4ccc(F)cc4F)c3Cl)CC2=O)CCN1C` (relative stereo) [Example 106, (6S)-6-[2-Chloro-3-(2,4-difluoro-phenyl)phenyl]-3-[(2S*,4S*)-1,2-dimethylpiperidin-4-yl]-2-imino-6-methylhexahydropyrimidin-4-one hydrochloride]: 94 nM; `C[C@@H]1C[C@H](N2C(=N)N[C@](C)(c3cccc(-c4ccc(F)cc4F)c3Cl)CC2=O)CCN1C` (relative stereo) [Example 107, (6S)-6-[2-Chloro-3-(2,4-difluoro-phenyl)phenyl]-3-[(2R*,4R*)-1,2-dimethylpiperidin-4-yl]-2-imino-6-methylhexahydropyrimidin-4-one hydrochloride]: 228 nM; `C[C@@]1(c2cccc(-c3cn(-c4cccc(F)c4)nn3)c2Cl)CC(=O)N([C@H]2CCC(F)(F)[C@@H](O)C2)C(=N)N1` (relative stereo) [Example 108, (6S)-6-{2-Chloro-3-[1-(3-fluoro-phenyl)-1,2,3-triazol-4-yl]phenyl}-3-[(1S*,3S*)-4,4-difluoro-3-hydroxycyclohexyl]-2-imino-6-methylhexahydropyrimidin-4-one hydrochloride]: 325 nM. With `C[C@H]1C[C@@H](N2C(=N)N[C@](C)(c3cccc(-c4cn(-c5cc(F)c(F)cc5F)nn4)c3Cl)CC2=O)CC[C@H]1O` (relative stereo) [Example 112, (6S)-6-{2-Chloro-3-[1-(2,4,5-trifluorophenyl)-1,2,3-triazol-4-yl]-phenyl}-3-[(1S*,3S*,4R*)-4-hydroxy-3-methylcyclohexyl]-2-imino-6-methylhexahydro-pyrimidin-4-one hydrochloride], the IC50 was found to be 132 nM. On the same count and under the same terms, next, `C[C@@H]1C[C@H](N2C(=N)N[C@](C)(c3cccc(-c4cn(-c5cc(F)c(F)cc5F)nn4)c3Cl)CC2=O)CC[C@@H]1O` (relative stereo) [Example 113, (6S)-6-{2-Chloro-3-[1-(2,4,5-trifluorophenyl)-1,2,3-triazol-4-yl]-phenyl}-3-[(1R*,3R*,4S*)-4-hydroxy-3-methylcyclohexyl]-2-imino-6-methylhexahydro-pyrimidin-4-one hydrochloride]: 540 nM; `C[C@H]1C[C@@H](N2C(=N)N[C@](C)(c3cccc(-c4cccc(C(O)C(F)F)c4)c3Cl)CC2=O)CCO1` (single isomer, unassigned) [Example 25, (6S)-6-(2-Chloro-3-{3-[(1R*)-2,2-difluoro-1-hydroxyethyl]phenyl}-phenyl)-2-imino-6-methyl-3-[(2S,4S)-2-methyltetrahydropyran-4-yl]hexahydropyrimidin-4-one hydrochloride]: 38 nM.
